Values of other authors, collected in patent US9872927B2, “Dye solution” (FLUORON GMBH, priority 2008, dated 2018).

What was measured:
[1] = tested on: eukaryotes
[2] = dye of U.S. Pat. No. 7,014,991

Compound | concentration in water tolerated by eukaryotes [1] | irritation in the area of application [1] | cytotoxicity [2]
[2H]O[2H] [Heavy water, D2O] | ≤ 20% | does not lead to any irritation | –
O=C1/C(=C2\Nc3ccc(S(=O)(=O)O)cc3C2=O)Nc2ccc(S(=O)(=O)O)cc21 [indigotindisulfonate] | – | – | cytotoxic
